The values below are quoted from earlier work in article PMC8513935.

The nature of data set [1]: derived by the authors as gas->solvent minus gas->water (a hypothetical dry solvent; the ESI), not a two-phase measurement.
Data set [2] can be described thus: experimental, compiled by the authors from the literature (the ESI cites the sources).
Data set [3] can be described thus: log P octanol/water from commercial databases, averaged (the ESI). The following applies: Octanol (wet), 25 C.

Turning to `CCCC(C)C`, the log K of transfer, water to solvent in data set [1] (1,2-Dichloroethane, 25 C) is 4.18 log10 K; in data set [1] (Acetone, 25 C), 4.08 log10 K; in data set [1] (Acetonitrile, 25 C), 3.66 log10 K; in data set [1] (Butan-1-ol, 25 C) it was 4.13 log10 K; in data set [1] (Butanone, 25 C) it was 4.23 log10 K; in data set [1] (Butyronitrile, 25 C) it was 4.05 log10 K. Further, the log K of transfer, water to solvent in data set [1] (CCl4, 25 C) is 4.65 log10 K; in data set [1] (Chlorobenzene, 25 C), 4.62 log10 K; in data set [1] (Chloroform, 25 C) it was 4.55 log10 K; in data set [1] (Cyclohexanone, 25 C) it was 4.14 log10 K; in data set [1] (Dichloromethane, 25 C), 4.43 log10 K; in data set [1] (Ethanol, 25 C), 4 log10 K. Moreover, the log K of transfer, water to solvent in data set [1] (Hexadecane, 25 C) was 4.34 log10 K; in data set [1] (Hexane, 25 C), 4.66 log10 K; in data set [1] (Methanol, 25 C), 3.79 log10 K; in data set [1] (Pentan-1-ol, 25 C), 4.26 log10 K; in data set [1] (Perfluoroalkane, 25 C), 3.65 log10 K; in data set [1] (Propan-1-ol, 25 C) it was 3.99 log10 K. In addition, the log K of transfer, water to solvent in data set [1] (Propan-2-ol, 25 C) was 4 log10 K; in data set [1] (Propionitrile, 25 C), 3.92 log10 K; in data set [1] (Tetrahydrofuran, 25 C), 4.54 log10 K; in data set [1] (Toluene, 25 C), 4.49 log10 K; in data set [3], 3.73 log10 K. Further, the log K of transfer, gas to solvent was 2.34 log10 K in data set [2] (1,2-Dichloroethane, 25 C); 1.82 log10 K in data set [2] (Acetonitrile, 25 C); 2.29 log10 K in data set [2] (Butan-1-ol, 25 C); 2.39 log10 K in data set [2] (Butanone, 25 C); 2.21 log10 K in data set [2] (Butyronitrile, 25 C); 2.81 log10 K in data set [2] (CCl4, 25 C). For the same compound, the log K of transfer, gas to solvent in data set [2] (Chlorobenzene, 25 C) is 2.78 log10 K; in data set [2] (Chloroform, 25 C), 2.71 log10 K; in data set [2] (Cyclohexanone, 25 C), 2.3 log10 K; in data set [2] (Dichloromethane, 25 C), 2.59 log10 K; in data set [2] (Ethanol, 25 C), 2.16 log10 K; in data set [2] (Hexadecane, 25 C), 2.5 log10 K. The log K of transfer, gas to solvent in data set [2] (Hexane, 25 C) was 2.82 log10 K; in data set [2] (Methanol, 25 C), 1.95 log10 K; in data set [2] (Pentan-1-ol, 25 C) it was 2.42 log10 K; in data set [2] (Perfluoroalkane, 25 C), 1.81 log10 K; in data set [2] (Propan-1-ol, 25 C) it was 2.15 log10 K; in data set [2] (Propan-2-ol, 25 C), 2.16 log10 K. Further, the log K of transfer, gas to solvent in data set [2] (Propanone, 25 C) is 2.24 log10 K; in data set [2] (Propionitrile, 25 C) it was 2.08 log10 K; in data set [2] (Tetrahydrofuran, 25 C), 2.7 log10 K; in data set [2] (Toluene, 25 C), 2.65 log10 K; in data set [2] (Water, 25 C), -1.84 log10 K.
For the compound `CCCC(C)=O`, the log K of transfer, water to solvent in data set [1] (Benzene, 25 C) is 1.19 log10 K; in data set [1] (CCl4, 25 C) it was 0.94 log10 K; in data set [1] (Chlorobenzene, 25 C), 1.29 log10 K; in data set [1] (Cyclohexane, 25 C), 0.4 log10 K; in data set [1] (Hexadecane, 25 C), 0.175 log10 K; in data set [1] (Methanol, 25 C) it was 0.999 log10 K. The log K of transfer, water to solvent in data set [1] (Octan-1-ol(dry), 25 C) is 0.61 log10 K; in data set [1] (Toluene, 25 C), 1.1 log10 K; in data set [3] it was 0.84 log10 K. The log K of transfer, gas to solvent was 3.77 log10 K in data set [2] (Benzene, 25 C); 3.52 log10 K in data set [2] (CCl4, 25 C); 3.87 log10 K in data set [2] (Chlorobenzene, 25 C); 2.98 log10 K in data set [2] (Cyclohexane, 25 C); 2.75 log10 K in data set [2] (Hexadecane, 25 C); 3.58 log10 K in data set [2] (Methanol, 25 C). The log K of transfer, gas to solvent is 3.19 log10 K in data set [2] (Octan-1-ol, 25 C); 3.68 log10 K in data set [2] (Toluene, 25 C); 2.58 log10 K in data set [2] (Water, 25 C).
For `C/C=C/C`, the log K of transfer, water to solvent was 2.79 log10 K in data set [1] (Acetone, 25 C); 2.64 log10 K in data set [1] (Hexadecane, 25 C); 2.31 log10 K in data set [3]. For the same compound, the log K of transfer, gas to solvent in data set [2] (Hexadecane, 25 C) was 1.66 log10 K; in data set [2] (Propanone, 25 C) it was 1.81 log10 K; in data set [2] (Water, 25 C) it was -0.98 log10 K.
As for `CC(C)(C)c1ccccc1`, the log K of transfer, water to solvent in data set [1] (Hexadecane, 25 C) is 4.09 log10 K; in data set [1] (Methanol, 25 C) it was 3.73 log10 K; in data set [1] (Propan-2-ol, 25 C), 3.78 log10 K; in data set [1] (Tetrahydrofuran, 25 C), 4.77 log10 K; in data set [3], 4.11 log10 K. The log K of transfer, gas to solvent in data set [2] (Hexadecane, 25 C) was 4.41 log10 K; in data set [2] (Methanol, 25 C) it was 4.05 log10 K; in data set [2] (Propan-2-ol, 25 C) it was 4.1 log10 K; in data set [2] (Tetrahydrofuran, 25 C), 5.09 log10 K; in data set [2] (Water, 25 C) it was 0.32 log10 K.
